Assay results: publication PMC11811597, “Phenomics‐Based Discovery of Novel Orthosteric Choline Kinase Inhibitors” (Angewandte Chemie (International Ed. in English), 2025)
Like-named read-outs stand apart in the source and are kept apart here.

Tests used:
JUP = target: T1, JUP (Homo sapiens, UniProt P14923); assay: Competitive affinity-based chemoproteomics (UNC0965 matrix), PBMC cell extract; assay type: binding; conditions: 20 µM competitor, n=2
T1 construct: endogenous in cells; host or cells: PBMC from healthy blood donors, cell extract
Procedure: described.[2] Lysates were precleared with bead slurry (100 μL) for 30 min at 4 °C and then treated with UNC0638 or UNC0737 (20 μM) or DMSO control for 30 min at 4 °C followed by incubation with affinity matrix for 2 h at 4 °C. Affinity matrices were washed with buffer A (5 mL) and proteins eluted with 100 μL of 2x Laemmli sample buffer, 100 mM DTT, in PBS and heating for 10 min at 90 °C.
Eluents (70 µL) were diluted in 0.1 M Tris (pH 7.8) to 200 µL, reduced with 5 mM DTT for 30 min at RT, and alkylated with 20 mM iodoacetamide for 30 min at RT in the dark. Proteins were precipitated by sequential addition of MeOH (600 µL), CHCl3 (150 µL) and H2O (450 µL), pelleted (17,000 × g, 5 min), washed with further MeOH (2 × 600 µL), and re-pelleted. Air dried pellets were resuspended in 50 μL 6 M urea (pH 7.8) by vortexing and then diluted with 250 μL H2O before adding 1 µg trypsin for overnight incubation at 37 °C. The digests were acidified with FA (1% v/v final concentration), desalted using SOLA HRP SPE Cartridges (Thermo Fisher), eluted with 69% v/v MeCN, 0.1% v/v FA in H2O (600 μL) and dried in vacuo. Dried peptides were stored at -20 °C before resuspension in 2% v/v MeCN, 0.1% v/v FA in H2O (20 μL) for LC-MS/MS analysis.
LC-MS/MS Data Acquisition
Digested samples were analysed by nano-UPLC–MS/MS using a Dionex Ultimate 3000 nano UPLC fitted with an EASY spray column (75 μm × 500 mm, 2 μm particle size, Thermo Scientific), coupled to an Orbitrap Q Exactive instrument. A 60 min gradient of 0.1% (v/v) formic acid in 5 % (v/v) DMSO to 0.1% (v/v) formic acid with 35% (v/v) acetonitrile in 5 % (v/v) DMSO at a flow rate of 250 nL min−1 was used. The instrument was operated in a data-dependant mode, with survey scans acquired at a resolution of 70,000 at 200 m/z and the 15 most abundant precursors selected for HCD fragmentation with an AGC target of […] ions.
Raw data was processed using MaxQuant[3] version 2.0.1.0 and the reference complete human proteome FASTA file (UniProt, downloaded 05.08.21). Label Free Quantification (LFQ) and Match Between Runs were selected; Cysteine carbamidomethylation was selected as a fixed modification, and methionine oxidation and asparagine deamidation as variable modifications. Default settings for identification and quantification were used. Specifically, a minimum peptide length of 7, a maximum of 2 missed cleavage sites, and a maximum of 5 labelled amino acids per peptide were allowed.
Through selection of the ‘trypsin/P’ general setting, peptide bond cleavage at arginine or lysine (followed by any amino acid) was considered during in silico digest of the reference proteome. The allowed precursor and fragment ion mass tolerances were 4.5 ppm and 20 ppm, respectively. Peptides and proteins were identified utilizing a 0.01 false discovery rate, with “unique and razor peptides” […]
mode selected for both identification and quantification of proteins (razor peptides are uniquely assigned to protein groups and not to individual proteins).

[1] = test system: human peripheral blood mononuclear cells (PBMC); assay: B-cell assay with stimulated PBMCs from healthy donors; assay type: cell-based; conditions: for cell viability (live CD19+ B cells, flow cytometry) / stimulation‐induced B cell maturation (CD27+IgD− memory B cells of live CD19+ B cells): 6 days of culture; for IgG secretion: stimulated PBMCs from healthy human blood donors, 6 days, dose-dependent; for stimulation‐induced B cell maturation (CD27+IgD− memory B cells of live CD19+ B cells): three healthy donors
Procedure: […]

CHKA = CHKA (Homo sapiens, UniProt P35790); assay: Isothermal calorimetry (ITC); assay type: binding; design: host or cells: E. coli BL21(DE3)
Procedure: mM NaCl, 5% glycerol, 500 mM imidazole, 0.5% TCEP, pH 7.5), the eluent was concentrated, and further purified by size exclusion chromatography using a HiLoad 16/600 Superdex S200 column (Cytiva) pre-equilibrated in Buffer C (20 mM HEPES, 150 mM NaCl, pH 7.5). The resulting protein purity was assessed by SDS-PAGE, and protein identity was confirmed by tryptic digest analysis. Protein concentration was determined to be 35.5 mg/mL, and was calculated using a theoretical molar extinction coefficient of 58830 M-1cm-1 as determined by ProtParam.[5]
Isothermal Calorimetry (ITC)
ITC experiments were performed in a buffer containing 20 mM HEPES pH 7.5 and 200 mM NaCl, using an VP-ITC microcalorimeter (MicroCal) at 15 °C. The protein concentration was 200 µM and compounds were tested at 20 µM. The titrations were conducted using an initial injection of 4 μL followed by further 29 injections of 8 μL each. Thermodynamic parameters were calculated using ΔG = ΔH − TΔS = −RT ln KB, where ΔG, ΔH, and ΔS are the changes in free energy, enthalpy, and entropy of binding, respectively. Single binding models were employed to fit the data. […]

T1 sequence (P14923 whole entry): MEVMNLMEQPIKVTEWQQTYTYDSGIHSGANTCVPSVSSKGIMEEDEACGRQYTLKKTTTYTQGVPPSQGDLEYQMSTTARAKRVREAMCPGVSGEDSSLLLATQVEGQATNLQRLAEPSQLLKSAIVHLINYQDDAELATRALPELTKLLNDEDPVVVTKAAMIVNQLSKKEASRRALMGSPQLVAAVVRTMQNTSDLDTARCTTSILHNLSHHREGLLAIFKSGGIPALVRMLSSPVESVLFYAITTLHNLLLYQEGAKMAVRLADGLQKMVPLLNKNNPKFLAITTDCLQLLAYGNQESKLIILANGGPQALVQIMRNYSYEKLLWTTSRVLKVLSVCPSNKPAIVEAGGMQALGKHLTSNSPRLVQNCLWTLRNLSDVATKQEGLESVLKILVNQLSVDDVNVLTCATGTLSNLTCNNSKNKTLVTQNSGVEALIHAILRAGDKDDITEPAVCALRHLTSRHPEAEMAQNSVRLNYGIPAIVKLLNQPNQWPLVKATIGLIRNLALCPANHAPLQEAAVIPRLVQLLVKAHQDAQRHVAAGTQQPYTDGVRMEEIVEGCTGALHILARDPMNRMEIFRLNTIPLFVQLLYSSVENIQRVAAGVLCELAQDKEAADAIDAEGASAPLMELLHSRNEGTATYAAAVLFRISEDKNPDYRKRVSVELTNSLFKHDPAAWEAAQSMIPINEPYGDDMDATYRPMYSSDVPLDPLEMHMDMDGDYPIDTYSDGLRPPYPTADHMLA
Sequence of CHKA (P35790 75-457 limits assumed): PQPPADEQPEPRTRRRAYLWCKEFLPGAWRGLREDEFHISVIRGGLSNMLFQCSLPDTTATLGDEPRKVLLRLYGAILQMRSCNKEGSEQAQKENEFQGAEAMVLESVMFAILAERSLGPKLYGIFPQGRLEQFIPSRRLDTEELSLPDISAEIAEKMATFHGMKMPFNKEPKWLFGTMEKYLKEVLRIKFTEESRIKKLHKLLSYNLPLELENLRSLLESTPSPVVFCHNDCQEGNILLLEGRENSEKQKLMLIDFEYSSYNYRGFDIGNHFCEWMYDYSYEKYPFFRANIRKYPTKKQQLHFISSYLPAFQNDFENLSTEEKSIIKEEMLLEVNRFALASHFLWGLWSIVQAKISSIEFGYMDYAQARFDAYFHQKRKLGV

Structure (SMILES) | FC vs DMSO (log2 competition), JUP (JUP) | cell viability (live CD19+ B cells, flow cytometry) [1] | IgG secretion [1] | stimulation‐induced B cell maturation (CD27+IgD− memory B cells of live CD19+ B cells) [1] | Kd (CHKA; ITC, 15 °C, recombinant human CHKA, read-out: KD) [nM] | Kd (CHKA) [nM]
COc1cc2c(NC3CCN(C(C)C)CC3)nc(C3CCCCC3)nc2cc1OCCCN1CCCC1 [UNC0638] | -1.79 | not markedly affected | reduction of IgG secretion | reduce | 270 | 
COc1cc2c(N(C)C3CCN(C(C)C)CC3)nc(C3CCCCC3)nc2cc1OCCCN1CCCC1 [UNC0737] | -0.7174 | not markedly affected | reduction of IgG secretion | reduce |  | 59.3
